Test results taken from US20230203081A1, “LINCOSAMIDE ANTIBIOTICS AND USES THEREOF” (President and Fellows of Harvard College, priority 2020, published 2023).
Converted amounts (≈) assume the structure as drawn. Where two headings read alike, the source gives them in different places.

Tests used:
Assay type in all cases: cell-based
[1] = system: S. aureus cErmA; assay: MIC (broth microdilution or agar dilution, CLSI); settings: Staphylococcus aureus; S. aureus cErmA; read-out: MIC
Procedure: (§1) Minimum inhibitory concentrations (MICs) were determined by broth microdilution method or agar dilution method following the Clinical and Laboratory Standards Institute guidelines. Standard bacterial strains were obtained from American Type Culture Collection (ATCC). Other bacterial strains were obtained from hospitals and commercial sources, so noted in Table 11. Before the start of the MIC experiment, standard and test compound stock solutions were prepared in dimethyl sulfoxide (DMSO, Aldrich D2650) at a stock concentration of 5,120 μg/mL. The compound concentration range typically employed for each experiment was 128-0.06 μg/mL (2.5% final DMSO concentration). Clindamycin was used as a comparator in all experiments and each experiment was performed in triplicate. Specialized procedures were employed for streptococcal and anaerobic strains. All other bacterial strains were sub-cultured on blood agar plates (tryptic soy agar with 5% sheep blood, Hardy Diagnostics) and incubated overnight at 35° C. Organisms were suspended in cation-adjusted Mueller-Hinton broth (CaMHB, BD 212322) and optical density was adjusted to 0.5 McFarland standard. Suspensions were further diluted to obtain a final inoculum of 5×10^5 CFU/mL for broth microdilution experiments.

[2] = system: E. faecium Clinical VRE; assay: MIC (broth microdilution or agar dilution, CLSI); settings: Enterococcus faecium; E. faecium Clinical VRE; read-out: MIC
Procedure: as §1

[3] = system: E. faecalis ATCC 29212; assay: MIC (broth microdilution or agar dilution, CLSI); settings: Enterococcus faecalis, read-out: MIC
Procedure: (§2) Minimum inhibitory concentrations (MICs) were determined by broth microdilution method or agar dilution method following the Clinical and Laboratory Standards Institute guidelines. Standard bacterial strains were obtained from American Type Culture Collection (ATCC). Other bacterial strains were obtained from hospitals and commercial sources, so noted in Table 11. […] Specialized procedures were employed for streptococcal and anaerobic strains. All other bacterial strains were sub-cultured on blood agar plates (tryptic soy agar with 5% sheep blood, Hardy Diagnostics) and incubated overnight at 35° C. […] Suspensions were further diluted to obtain a final inoculum of 5×10^5 CFU/mL for broth microdilution experiments.

[4] = system: S. aureus ATCC 29213; assay: MIC (broth microdilution or agar dilution, CLSI); settings: Staphylococcus aureus, read-out: MIC
Procedure: as §2

[5] = system: E. coli ATCC 25922; assay: MIC (broth microdilution or agar dilution, CLSI); settings: Escherichia coli, ATCC25922, read-out: MIC
Procedure: as §2

[6] = system: S. pyogenes ATCC 19615; assay: MIC (broth microdilution or agar dilution, CLSI); settings: Streptococcus pyogenes, read-out: MIC
Procedure: as §2

[7] = system: E. coli LptD; assay: MIC (broth microdilution or agar dilution, CLSI); settings: Escherichia coli, read-out: MIC
Procedure: as §2

[8] = system: S. pneumoniae ATCC 49619; assay: MIC (broth microdilution or agar dilution, CLSI); settings: Streptococcus pneumoniae, read-out: MIC
Procedure: as §2

[9] = system: K. oxytoca Clinical; assay: MIC (broth microdilution or agar dilution, CLSI); settings: Klebsiella oxytoca, read-out: MIC
Procedure: as §2

[10] = system: E. coli ΔTolC; assay: microbe, parasite or virus in culture; settings: Escherichia coli
Procedure: as §2

[11] = system: S. aureus ATCC BAA-1707 (MRSA); assay: MIC (broth microdilution or agar dilution, CLSI); settings: Staphylococcus aureus; S. aureus HAV#016, ATCC BAA-1707; MRSA; read-out: MIC
Procedure: as §2

[12] = system: broad panel of different clinical isolates; assay: microbe, parasite or virus in culture; settings: Enterococcus faecium, VRE, E. faecium HAV#326; Clinical
Procedure: as §2

[13] = system: S. aureus BAA 977 iErmA; assay: microbe, parasite or virus in culture; settings: Staphylococcus aureus, BAA-977 / MRSA
Procedure: as §2

[14] = ATCC29212, E. faecalis ATCC 29212
[15] = ATCC29213, S. aureus ATCC 29213
[16] = ATCC19615, S. pyogenes ATCC 19615
[17] = ATCC49619, S. pneumoniae ATCC 49619
[18] = ATCC29212, E. faecalis HAV#005, ATCC 29212
[19] = ATCC29213, S. aureus HAV#001, ATCC 29213, MP-549

Row | SMILES | MIC [1] | MIC [2] | MIC [3, 14] | MIC [4, 15] | MIC ([5]; E. coli ATCC 25922) | MIC [6, 16] | MIC ([7]; E. coli LptD) | MIC [8, 17] | MIC ([9]; K. oxytoca Clinical) | MIC ([10]; E. coli ΔTolC) | also measured
1 | CS[C@H]1O[C@H]([C@H](NC(=O)[C@H]2NC[C@@H]3C[C@H](CC(C)C)CCO[C@H]32)[C@H](C)Sc2ccc(CN3CCNCC3)cc2)[C@H](O)[C@H](O)[C@H]1O [FSA-09-05-076, (4S,5aS,8S,8aR)-4-Isobutyl-N-((1S,2S)-2-((4-(piperazin-1-ylmethyl)phenyl)thio)-1-((2R,3R,4S,5R,6R)-3,4,5-trihydroxy-6-(methylthio)tetrahydro-2H-pyran-2-yl)propyl)octahydro-2H-oxepino[2,3-c]pyrrole-8-carboxamide] | 128 µg/mL (≈ 192 µM) | 16 µg/mL (≈ 24 µM) | 4 µg/mL (≈ 6 µM) | 8 µg/mL (≈ 12 µM) | 128 µg/mL (≈ 192 µM) | 0.25 µg/mL (≈ 0.375 µM) | 16 µg/mL (≈ 24 µM) | 1 µg/mL (≈ 1.5 µM) | 16 µg/mL (≈ 24 µM) | 8 µg/mL (≈ 12 µM) | –
2 | CS[C@H]1O[C@H]([C@H](NC(=O)[C@H]2NC[C@@H]3C[C@H](CC(C)C)CCO[C@H]32)[C@H](C)Sc2ccc(CN3CCCCC3)cc2)[C@H](O)[C@H](O)[C@H]1O [FSA-09-05-077, (4S,5aS,8S,8aR)-4-Isobutyl-N-((1S,2S)-2-((4-(piperidin-1-ylmethyl)phenyl)thio)-1-((2R,3R,4S,5R,6R)-3,4,5-trihydroxy-6-(methylthio)tetrahydro-2H-pyran-2-yl)propyl)octahydro-2H-oxepino[2,3-c]pyrrole-8-carboxamide] | 4 µg/mL (≈ 6.01 µM) | 1 µg/mL (≈ 1.5 µM) | 1 µg/mL (≈ 1.5 µM) | 2 µg/mL (≈ 3 µM) | 16 µg/mL (≈ 24 µM) | 0.125 µg/mL (≈ 0.188 µM) | 1 µg/mL (≈ 1.5 µM) | 0.25 µg/mL (≈ 0.375 µM) | 1 µg/mL (≈ 1.5 µM) | 4 µg/mL (≈ 6.01 µM) | –
3 | CS[C@H]1O[C@H]([C@H](NC(=O)[C@H]2NC[C@@H]3C[C@H](CC(C)C)CCO[C@H]32)[C@H](C)Sc2ccc(CN3CCCC3)cc2)[C@H](O)[C@H](O)[C@H]1O [FSA-09-05-078, (4S,5aS,8S,8aR)-4-Isobutyl-N-((1S,2S)-2-((4-(pyrrolidin-1-ylmethyl)phenyl)thio)-1-((2R,3R,4S,5R,6R)-3,4,5-trihydroxy-6-(methylthio)tetrahydro-2H-pyran-2-yl)propyl)octahydro-2H-oxepino[2,3-c]pyrrole-8-carboxamide] | 4 µg/mL (≈ 6.14 µM) | 1 µg/mL (≈ 1.53 µM) | 1 µg/mL (≈ 1.53 µM) | 2 µg/mL (≈ 3.07 µM) | 16 µg/mL (≈ 24.5 µM) | 0.125 µg/mL (≈ 0.192 µM) | 2 µg/mL (≈ 3.07 µM) | 0.25 µg/mL (≈ 0.383 µM) | 2 µg/mL (≈ 3.07 µM) | 4 µg/mL (≈ 6.14 µM) | –
4 | CNCc1ccc(S[C@@H](C)[C@@H](NC(=O)[C@H]2NC[C@@H]3C[C@H](CC(C)C)CCO[C@H]32)[C@H]2O[C@H](SC)[C@H](O)[C@@H](O)[C@H]2O)cc1 [FSA-09-05-079, (4S,5aS,8S,8aR)-4-Isobutyl-N-((1S,2S)-2-((4-((methylamino)methyl)phenyl)thio)-1-((2R,3R,4S,5R,6R)-3,4,5-trihydroxy-6-(methylthio)tetrahydro-2H-pyran-2-yl)propyl)octahydro-2H-oxepino[2,3-c]pyrrole-8-carboxamide] | 8 µg/mL (≈ 13.1 µM) | 4 µg/mL (≈ 6.54 µM) | 0.5 µg/mL (≈ 0.817 µM) | 1 µg/mL (≈ 1.63 µM) | 16 µg/mL (≈ 26.1 µM) | 0.5 µg/mL (≈ 0.817 µM) | 1 µg/mL (≈ 1.63 µM) | 0.5 µg/mL (≈ 0.817 µM) | 16 µg/mL (≈ 26.1 µM) | 1 µg/mL (≈ 1.63 µM) | –
5 | CCCC[C@@H]1CCO[C@@H]2[C@H](CN[C@@H]2C(=O)N[C@H]([C@H](C)Cl)[C@H]2OC(SC)[C@H](O)C(O)C2O)C1 (some centres unmarked) [FSA-12-03-029] | 8 µg/mL (≈ 16.2 µM) | 8 µg/mL (≈ 16.2 µM) | 0.25 µg/mL (≈ 0.505 µM) | 0.25 µg/mL (≈ 0.505 µM) | 16 µg/mL (≈ 32.3 µM) | 0.06 µg/mL (≈ 0.121 µM) | 4 µg/mL (≈ 8.08 µM) | 0.06 µg/mL (≈ 0.121 µM) | 32 µg/mL (≈ 64.6 µM) | 4 µg/mL (≈ 8.08 µM) | –
6 | CSC1O[C@H]([C@H](NC(=O)[C@H]2NC[C@@H]3C[C@H](CCCF)CCO[C@H]32)[C@H](C)Cl)C(O)C(O)[C@H]1O (some centres unmarked) [FSA-12-03-035] | 8 µg/mL (≈ 16 µM) | 4 µg/mL (≈ 8.02 µM) | 0.25 µg/mL (≈ 0.501 µM) | 0.125 µg/mL (≈ 0.25 µM) | 8 µg/mL (≈ 16 µM) | 0.06 µg/mL (≈ 0.12 µM) | 4 µg/mL (≈ 8.02 µM) | 0.06 µg/mL (≈ 0.12 µM) | 4 µg/mL (≈ 8.02 µM) | 4 µg/mL (≈ 8.02 µM) | –
7 | CSC1O[C@H]([C@H](NC(=O)[C@H]2NC[C@@H]3C[C@H](CCCCl)CCO[C@H]32)[C@H](C)Cl)C(O)C(O)[C@H]1O (some centres unmarked) [FSA-12-03-042] | 16 µg/mL (≈ 31 µM) | 4 µg/mL (≈ 7.76 µM) | 0.125 µg/mL (≈ 0.242 µM) | 0.125 µg/mL (≈ 0.242 µM) | 8 µg/mL (≈ 15.5 µM) | 0.06 µg/mL (≈ 0.116 µM) | 2 µg/mL (≈ 3.88 µM) | 0.06 µg/mL (≈ 0.116 µM) | 8 µg/mL (≈ 15.5 µM) | 0.5 µg/mL (≈ 0.97 µM) | –
8 | CSC1O[C@H]([C@H](NC(=O)[C@H]2NC[C@@H]3C[C@H](CCC(F)F)CCO[C@H]32)[C@H](C)Cl)C(O)C(O)[C@H]1O (some centres unmarked) [FSA-12-03-055] | 16 µg/mL (≈ 30.9 µM) | 8 µg/mL (≈ 15.5 µM) | 0.25 µg/mL (≈ 0.484 µM) | 0.125 µg/mL (≈ 0.242 µM) | 16 µg/mL (≈ 30.9 µM) | 0.06 µg/mL (≈ 0.116 µM) | 4 µg/mL (≈ 7.74 µM) | 0.06 µg/mL (≈ 0.116 µM) | 16 µg/mL (≈ 30.9 µM) | 1 µg/mL (≈ 1.93 µM) | –
9 | CCC[C@@H]1C[C@@H](C(=O)N[C@@H]([C@H]2O[C@H](SC)[C@H](O)[C@@H](O)[C@H]2O)[C@@H](C)O)N(C)C1 [Lincomycin] | – | – | – | – | – | – | – | – | – | – | MIC [3, 18]: 32 µg/mL (≈ 78.7 µM); MIC [11]: 0.25 µg/mL (≈ 0.615 µM); MIC [4, 19]: 0.5 µg/mL (≈ 1.23 µM); MIC ([5]; E. coli HAV#006, ATCC 25922): > 256 µg/mL; MIC ([6]; ATCC19615, S. pyogenes HAV#004, ATCC 19615): 0.5 µg/mL (≈ 1.23 µM); MIC ([7]; E. coli HAV#040, LptD): 64 µg/mL (≈ 157 µM); MIC ([8]; ATCC49619, S. pneumoniae HAV#003, ATCC 49619): 1 µg/mL (≈ 2.46 µM); MIC ([9]; K. oxytoca HAV#450, Clinical): > 256 µg/mL; MIC ([10]; E. coli HAV#038, ΔTolC): 128 µg/mL (≈ 315 µM); MIC [12]: 16 µg/mL (≈ 39.4 µM)
10 | CN(C)c1ccc(O)c2c1C[C@H]1C[C@H]3[C@H](N(C)C)C(O)=C(C(N)=O)C(=O)[C@@]3(O)C(O)=C1C2=O [Minocycline] | – | – | – | – | – | – | – | – | – | – | MIC [3, 18]: 4 µg/mL (≈ 8.74 µM); MIC [11]: 0.25 µg/mL (≈ 0.546 µM); MIC [4, 19]: 0.25 µg/mL (≈ 0.546 µM); MIC ([5]; E. coli HAV#006, ATCC 25922): 0.5 µg/mL (≈ 1.09 µM); MIC ([7]; E. coli HAV#040, LptD): 0.25 µg/mL (≈ 0.546 µM); MIC ([10]; E. coli HAV#038, ΔTolC): ≤ 0.0125 µg/mL; MIC [13]: 0.25 µg/mL (≈ 0.546 µM); MIC [12]: 0.125 µg/mL (≈ 0.273 µM)
